The values below come from PubChem BioAssay (NCI).

Common to all, as to test: NCI-60 cell line screen, 48 h
Assay [1] concerns ACHN renal.
Assay [2] concerns DU-145 prostate.
Assay [3] has as its system EKVX NSCLC.
Assay [4] deals with HCT-116 colon.
The subject of assay [5] is KM12 colon.
Assay [6] relates to M14 melanoma.
Assay [7] concerns MDA-MB-435.
The subject of assay [8] is NCI/ADR-RES ovarian.
The subject of assay [9] is OVCAR-5 ovarian.
Assay [10] deals with SK-MEL-2 melanoma.
Assay [11] concerns SK-MEL-5 melanoma.
Assay [12] deals with SN12C renal.
In assay [13] the test system is SR leukemia.

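These data come from cells grown in 96-well plates and exposed to compound for 48 hours at five concentrations. TGI marks complete inhibition of growth.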

Consider `CCOC(=O)CSc1nc2ccccc2c(=O)n1N`, for which the TGI in [1], in assay [2], in assay [3], in [4], in assay [5] and in [6] was over 100 µM in each case. In addition, the TGI in [7], in assay [8], in assay [9], in [10], in assay [11] and in assay [12] was over 100 µM throughout. This molecule also returned a TGI in assay [13] of over 100 µM.

As to `Cc1c(O)c(OC2OC(CO)C(O)C(O)C2O)cc2c1CC[C@@H]1C2(C)C(=O)C[C@]2(C)[C@@H]([C@@](C)(O)C(O)/C=C/C(C)(C)O)[C@H](O)C[C@@]12C` (stereo partly drawn), the TGI in [1], in [2], in assay [3], in [4], in assay [5] and in assay [6] was over 100 µM each time. For the same molecule, the TGI in assay [7], in assay [8], in [9], in assay [10], in assay [11] and in assay [12] was over 100 µM in each case. Also, the TGI in assay [13] was over 100 µM.

`C=CCNC1=C2C[C@@H](C)C[C@@H](OC)[C@H](OC(=O)CN(C)C)[C@H](C)/C=C(\C)[C@@H](OC(N)=O)[C@H](OC)/C=C\C=C(/C)C(=O)NC(=CC1=O)C2=O`: the TGI in assay [1] worked out at 20.1 µM; in [2] it was 2.72 µM; in [3], 21.8 µM; in assay [4] it was 16.2 µM; in [5], 0.274 µM; in assay [6] it was 18.9 µM. Also, the TGI in assay [7] is 13.7 µM; in assay [8], over 92.1 µM; in assay [9], 25.7 µM; in assay [10], 13.9 µM; in assay [11], 14.6 µM; in [12], 17.7 µM. In [13], this molecule yielded a TGI of over 32 µM.

As to `CCCSc1cc(Cl)c(C)cc1S(=O)(=O)n1cc[nH]c1=O`, the TGI in [1], in assay [2], in [3], in assay [4], in assay [5] and in assay [6] was over 100 µM throughout. In addition, the TGI in assay [7], in assay [8], in assay [9], in [10], in [11] and in [12] was over 100 µM throughout. In assay [13], the TGI is over 100 µM.

Consider `CC(=O)N1NC(c2ccccc2)=CC(=O)/C1=C/C(=O)c1ccccc1`, for which the TGI in [1], in assay [2], in assay [3], in assay [4], in assay [5] and in assay [6] was over 100 µM each time. Besides, the TGI in [7] is 43.1 µM; in assay [8] it was over 100 µM; in assay [9], over 100 µM; in [10], over 100 µM; in assay [11], over 100 µM; in assay [12] it was over 100 µM. Moreover, the TGI in [13] worked out at 57.8 µM.

For the molecule `CN(C(=O)OC(C)(C)C)[C@H]1CCCC[C@H]1N1CCCC1`, the TGI in assay [1], in assay [2], in assay [3], in assay [4], in [5] and in assay [6] was over 100 µM each time. In addition, the TGI in assay [7], in [8], in assay [9], in assay [10], in assay [11] and in assay [12] was over 100 µM each time. For the same molecule, the TGI in [13] is over 100 µM.

`O=c1c2cccnc2[nH]c2ccc3scnc3c12`: the TGI in [1] was over 10 µM; in assay [2], over 10 µM; in assay [3] it was over 10 µM; in assay [4], 9.79 µM; in assay [5], over 10 µM; in assay [6] it was over 10 µM. Besides, the TGI in assay [7], in assay [8], in assay [9], in [10], in [11] and in [12] was over 10 µM each time. For the same molecule, in assay [13], the TGI is over 10 µM.

`O=C(OCc1ccccc1)N1CCNCCNCC1`: the TGI in [1], in [2], in assay [3], in [4], in [5] and in [6] was over 100 µM throughout. Also, the TGI in assay [7], in [8], in assay [9], in assay [10], in assay [11] and in [12] was over 100 µM throughout. For the same molecule, the TGI in assay [13] is over 100 µM.

Consider `c1ccc(COCC23CCN(Cc4ccccc4)C(CC(OCc4ccccc4)C2)S3)cc1` (stereo not drawn), for which the TGI in [1], in assay [2], in [3], in assay [4], in [5] and in assay [6] was over 100 µM in each case. Further, the TGI in assay [7] was over 100 µM; in [8], over 100 µM; in assay [9] it was over 100 µM; in assay [10], over 100 µM; in assay [11] it was 32.3 µM; in [12] it was over 100 µM. In addition, the TGI in assay [13] worked out at 63.7 µM.

As to `COC(=O)c1cc(NC2OCC(OC(C)=O)C(OC(C)=O)C2OC(C)=O)nc(SC)c1C(=O)OC` (stereo not drawn), the TGI in assay [1], in assay [2], in assay [3], in [4], in assay [5] and in assay [6] was over 100 µM each time. In addition, the TGI in assay [7], in [8], in assay [9], in assay [10], in [11] and in [12] was over 100 µM each time. The TGI in [13] was over 100 µM.

With `C1COC2SC3=C(SC(=C4SC5=C(SCCS5)S4)S3)SC2O1` (stereo not drawn), the TGI in assay [1], in [2], in [3], in assay [4], in assay [5] and in assay [6] was over 100 µM each time. For the same molecule, the TGI in assay [7], in assay [8], in assay [9], in assay [10], in assay [11] and in assay [12] was over 100 µM in each case. The same molecule had a TGI in assay [13] of 78.3 µM.

On to `CN(C)c1ccc(N=Nc2cccc3ccoc23)cc1`, for which the TGI in assay [1], in [2], in assay [3], in [4], in assay [5] and in assay [6] was over 100 µM throughout. For the same molecule, the TGI in [7], in [8], in assay [9], in assay [10], in assay [11] and in [12] was over 100 µM throughout. The TGI in assay [13] was over 76.1 µM.

Regarding `Cc1cc(C)c2c(=O)cc(-c3ccc(Cl)cc3)[nH]c2n1`, the TGI in assay [1] was over 100 µM; in assay [2] it was over 100 µM; in [3] it was over 100 µM; in assay [4] it was over 63.4 µM; in assay [5] it was over 100 µM; in assay [6], over 100 µM. Moreover, the TGI in assay [7] is 27.6 µM; in [8], over 74.3 µM; in assay [9], over 100 µM; in [10], over 100 µM; in assay [11], over 74.2 µM; in assay [12], over 100 µM. The TGI in assay [13] is over 100 µM.

On to `CCOC(=O)C(NNS(=O)(=O)c1ccc(C)cc1)S(=O)(=O)C(F)(F)C(F)(F)C(F)(F)C(F)(F)F` (stereo not drawn), for which the TGI in [1], in [2], in [3], in assay [4], in [5] and in assay [6] was over 100 µM each time. Besides, the TGI in assay [7], in [8], in assay [9], in assay [10], in assay [11] and in [12] was over 100 µM in each case. This molecule came in with a TGI in assay [13] of over 100 µM.

For `COC1Cc2c(C)c(OC(C)=O)c3cccnc3c2O1` (stereo not drawn), the TGI in assay [1] is 22.8 µM; in [2], 31 µM; in [3], 30.6 µM; in assay [4], over 100 µM; in assay [5] it was over 100 µM; in assay [6], 27.7 µM. The TGI in assay [7] was determined as 32.6 µM; in [8], 67.4 µM; in assay [9], 32.7 µM; in [10] it was 31.2 µM; in assay [11] it was 29.2 µM; in assay [12], 37.8 µM. This molecule had a TGI in [13] of 61.2 µM.

In the case of `CCc1cc(-c2nsc(=O)o2)c(S(=O)(=O)CC)s1`, the TGI in assay [1], in assay [2], in [3], in assay [4], in assay [5] and in [6] was over 100 µM throughout. In addition, the TGI in assay [7], in assay [8], in assay [9], in assay [10], in assay [11] and in assay [12] was over 100 µM throughout. This molecule also gave a TGI in [13] of over 100 µM.
